Results taken from US20100261706A1, “SUBSTITUTED TETRACYCLIC 1H-INDENO [1,2-B]PYRIDINE-2(5H)-ONE ANALOGS THEREOF AND USES THEREOF” (INOTEK PHARMACEUTICALS CORPORATION, priority 2008, published 2010).
Structures can show the parent of a compound that is named as a salt.

How the values were obtained:
PARP = biological target: T1, PARP (Mus musculus, UniProt P11103); assay: PARP activity in cultured macrophages, whole-cell based assay (3H-NAD+ incorporation after hydrogen peroxide); conditions: murine RAW macrophages, 1 hour pretreatment, hydrogen peroxide 0.5 mM
T1 construct: PARP Activity in Cultured Macrophages, Using a Whole-Cell Based Assay; endogenous in cells; host or cells: murine RAW macrophages (ATCC)
Experimental: Effect of Tetracyclic 1H-indeno[1,2-b]pyridine-2(511)-one Analogs on PARP Activity in Cultured Macrophages, Using a Whole-Cell Based Assay
The murine RAW macrophages (ATCC, American Type Culture Collection, Manassas, Va.) were grown in […] (Invitrogen Life Technologies; Carlsbad, Calif.) medium supplemented with 10% heat-inactivated FBS, 2 mM L-glutamine, and 100 U/ml of penicillin and streptomycin. Cells, between passages 5 and 15, were seeded at a density of 250,000 cells/well in 12 well plates and allowed to grow 48 hours before use. Growth medium was changed on the day of use. Cells were treated with a tetracyclic 1H-indeno[1,2-b]pyridine-2(5H)-one analog diluted in a growth medium supplemented with 10% fetal bovine serum (FBS) for 1 hour prior to the addition of hydrogen peroxide (0.5 mM) for a further 25 minutes. For the measurement of PARP activity, media was removed and replaced with 0.5 ml of the assay buffer (56 mM HEPES-pH 7.5, 28 mM KCl, 28 mM NaCl, 2 mM MgCl2, 0.01% digitonin, and 0.5 μCi/ml of ^3H-NAD^+) for 20 minutes. After aspirating the assay buffer, cells were lysed and transferred to eppendorf tubes containing 250 μl of 50% ice-cold trichloroacetic acid (TCA), which were then placed at 4° C. for 4 hours. Samples were centrifuged at 10,000 g for 10 minutes and supernatant removed. The pellets were washed twice with 500 μl of ice-cold 5% w/v TCA. The pellets were then solubilized in 250 μl of NaOH (0.1 M) containing 2% SDS overnight at 37° C. and the PARP activity was then determined by measuring the radioactivity incorporated using a Wallac scintillation counter. The solubilized protein (250 μl) was mixed with 5 ml of scintillation fluid (ScintiSafe Plus, Fisher Scientific) before being counted for 3 minutes. EC50 values were determined from a dose-response curve.

PARP-1 enzyme = biological target: T2, PARP-1 enzyme (Homo sapiens, UniProt P09874); assay: Purified PARP-1 enzyme inhibition assay (Trevigen kit, 96 well ELISA plates); assay type: biochemical
T2 construct: purchased Trevigen, Gaithersburg, Md
Experimental: Effect of Tetracyclic 1H-indeno[1,2-b]pyridine-2(5H)-one analogs on PARP Activity in purified PARP-1 enzyme assay
The potency of inhibition on purified PARP-1 enzyme was subsequently determined for selected compounds, and the potency was compared with INO-1001. The assay was performed in 96 well ELISA plates according to instructions provided with a commercially available PARP-1 inhibition assay kit (Trevigen, Gaithersburg, Md.). Briefly, wells were coated with 1 mg/ml histone (50 μl/well) at 4° C. overnight. Plates were then washed four times with PBS and then blocked by adding 50 μl Strep-Diluent (supplied with the kit). After incubation (1 h, 25° C.), the plates were washed four times with PBS. Appropriate dilutions of compound was combined with 2×PARP cocktail (1.95 mM NAD^+, 50 μM biotinylated NAD^+ in 50 mM TRIS pH 8.0, 25 mM MgCl2) and high specific activity PARP enzyme (both were supplied with the kit) in a volume of 50 μl. The reaction was allowed to proceed for 30 min at room temperature. After 4 washes in PBS, incorporated biotin was detected by peroxidase-conjugated streptavidin (1:500 dilution) and TACS Sapphire substrate. EC50 and IC50 values were determined from a dose-response curve.

T1 sequence (P11103 whole entry): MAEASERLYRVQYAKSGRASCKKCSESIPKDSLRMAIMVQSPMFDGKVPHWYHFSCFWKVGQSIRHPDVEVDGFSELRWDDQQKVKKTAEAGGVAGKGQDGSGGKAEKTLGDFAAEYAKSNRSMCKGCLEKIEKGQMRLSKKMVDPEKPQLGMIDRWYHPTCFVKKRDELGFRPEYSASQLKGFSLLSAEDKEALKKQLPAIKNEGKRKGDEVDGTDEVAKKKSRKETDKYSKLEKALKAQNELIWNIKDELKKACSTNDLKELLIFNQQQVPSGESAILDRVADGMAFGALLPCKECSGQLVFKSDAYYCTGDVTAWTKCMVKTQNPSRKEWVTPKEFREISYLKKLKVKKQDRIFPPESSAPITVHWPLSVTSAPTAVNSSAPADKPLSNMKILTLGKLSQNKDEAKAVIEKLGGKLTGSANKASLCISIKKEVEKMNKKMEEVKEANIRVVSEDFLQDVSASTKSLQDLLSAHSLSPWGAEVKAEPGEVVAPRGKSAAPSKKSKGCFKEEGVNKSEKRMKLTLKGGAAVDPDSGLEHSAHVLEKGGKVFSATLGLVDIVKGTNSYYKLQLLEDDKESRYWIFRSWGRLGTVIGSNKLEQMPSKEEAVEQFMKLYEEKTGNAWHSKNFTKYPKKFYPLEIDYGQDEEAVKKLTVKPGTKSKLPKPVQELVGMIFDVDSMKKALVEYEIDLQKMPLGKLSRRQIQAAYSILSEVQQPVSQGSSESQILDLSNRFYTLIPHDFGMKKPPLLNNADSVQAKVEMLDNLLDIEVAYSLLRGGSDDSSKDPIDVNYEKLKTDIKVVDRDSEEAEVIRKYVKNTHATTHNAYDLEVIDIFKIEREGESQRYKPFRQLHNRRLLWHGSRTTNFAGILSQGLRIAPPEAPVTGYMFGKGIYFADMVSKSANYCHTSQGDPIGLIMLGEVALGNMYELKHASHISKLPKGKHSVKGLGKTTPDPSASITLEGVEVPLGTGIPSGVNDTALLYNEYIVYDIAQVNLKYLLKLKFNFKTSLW
T2 sequence (P09874 whole entry): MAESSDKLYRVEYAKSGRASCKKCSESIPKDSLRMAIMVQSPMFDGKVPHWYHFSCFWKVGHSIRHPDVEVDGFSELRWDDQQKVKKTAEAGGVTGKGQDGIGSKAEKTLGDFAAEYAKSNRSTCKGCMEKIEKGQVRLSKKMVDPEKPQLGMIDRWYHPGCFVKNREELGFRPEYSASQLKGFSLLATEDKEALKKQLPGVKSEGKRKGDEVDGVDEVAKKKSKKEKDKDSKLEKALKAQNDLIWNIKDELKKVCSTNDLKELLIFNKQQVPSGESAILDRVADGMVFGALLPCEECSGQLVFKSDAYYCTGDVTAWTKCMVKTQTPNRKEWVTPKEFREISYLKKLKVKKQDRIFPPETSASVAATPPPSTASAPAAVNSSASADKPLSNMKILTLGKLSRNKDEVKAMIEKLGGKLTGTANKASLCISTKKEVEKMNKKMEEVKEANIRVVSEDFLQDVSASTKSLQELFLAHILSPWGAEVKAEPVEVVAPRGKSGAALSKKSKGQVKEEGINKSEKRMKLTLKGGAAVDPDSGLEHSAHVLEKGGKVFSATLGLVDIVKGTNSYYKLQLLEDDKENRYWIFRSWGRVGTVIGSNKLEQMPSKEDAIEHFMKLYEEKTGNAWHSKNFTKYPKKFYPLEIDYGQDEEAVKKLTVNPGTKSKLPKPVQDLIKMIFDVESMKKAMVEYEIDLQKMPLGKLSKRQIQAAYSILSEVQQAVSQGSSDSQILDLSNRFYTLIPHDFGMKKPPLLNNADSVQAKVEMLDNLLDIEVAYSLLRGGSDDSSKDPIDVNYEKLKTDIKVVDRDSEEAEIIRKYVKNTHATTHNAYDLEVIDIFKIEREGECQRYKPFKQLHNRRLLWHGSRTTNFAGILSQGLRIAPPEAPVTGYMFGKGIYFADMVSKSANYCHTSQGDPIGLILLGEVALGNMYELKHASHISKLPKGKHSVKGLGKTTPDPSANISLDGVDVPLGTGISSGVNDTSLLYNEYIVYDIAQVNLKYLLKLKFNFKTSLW

| SMILES | EC50 (PARP) | IC50 (PARP-1 enzyme) |
| --- | --- | --- |
| CC1CCN(Cc2cccc3c2Cc2c-3[nH]c(=O)c3c2CCCC3)CC1 [Example 20, 10-((4-methylpiperidin-1-yl)methyl)-3,4,6,11-tetrahydro-1H-indeno[1,2-c]isoquinolin-5(2H)-one mesylate] | 4.1 nM | 5.2 nM |
| O=c1[nH]c2c(c3ncccc13)Cc1c-2cccc1N1CCN(CC2CC2)CC1 [Example 61, 10-(4-(cyclopropylmethyl)piperazin-1-yl)-6,11-dihydro-5H-indeno[1,2-h][1,6]naphthyridin-5-one] | 46 nM | 27.9 nM |
| O=c1[nH]c2c(c3c1CCCC3)Cc1c(CN3CCC(N4CCCC4)CC3)cccc1-2 [Example 23, 10-((4-(pyrrolidin-1-yl)piperidin-1-yl)methyl)-3,4,6,11-tetrahydro-1H-indeno[1,2-c]isoquinolin-5(2H)-one] | 20.9 nM | 12.7 nM |
| O=c1[nH]c2c(c3ncccc13)Cc1c(CNC3CCCC3)cccc1-2 [Example 62, 10-((cyclopentylamino)methyl)-6,11-dihydro-5H-indeno[1,2-h][1,6]naphthyridin-5-one] | 13 nM | 28.1 nM |
| COCCN1CCN(c2cccc3c2Cc2c-3[nH]c(=O)c3c2CCCC3)CC1 [Example 43, 10-(4-(2-methoxyethyl)piperazin-1-yl)-3,4,6,11-tetrahydro-1H-indeno[1,2-c]isoquinolin-5(2H)-one] | 9 nM | 8.1 nM |
| CC(C)(O)C(=O)Nc1cccc2c1Cc1c-2[nH]c(=O)c2c1CCCC2 [Example 51, 2-hydroxy-2-methyl-N-(5-oxo-2,3,4,5,6,11-hexahydro-1H-indeno[1,2-c]isoquinolin-10-yl)propanamide] | 59 nM | > 250 nM |
| O=c1[nH]c2c(c3c1CCCC3)Cc1c(CNC3CCCC3)cccc1-2 [Example 26, 10-((cyclopentylamino)methyl)-3,4,6,11-tetrahydro-1H-indeno[1,2-c]isoquinolin-5(2H)-one] | 5 nM | 3.4 nM |
| CC(C)N1CCN(c2cccc3c2Cc2c-3[nH]c(=O)c3cccnc23)CC1 [Example 60, 10-(4-isopropylpiperazin-1-yl)-6,11-dihydro-5,1-indeno[1,2-h][1,6]naphthyridin-5-one] | 37 nM | 19.2 nM |
| O=c1[nH]c2c(c3c1CCCC3)Cc1c(CNC3(CO)CCCC3)cccc1-2 [Example 50, 10-((1-(hydroxymethyl)cyclopentylamino)methyl)-3,4,6,11-tetrahydro-1H-indeno[1,2-c]isoquinolin-5(2H)-one] | 5 nM | 6.3 nM |
| O=c1[nH]c2c(c3ccsc13)Cc1c(CNC3CCCC3)cccc1-2 [Example 48, 9-((cyclopentylamino)methyl)-5,10-dihydro-4H-indeno[1,2-b]thieno[3,2-d]pyridin-4-one] | 10 nM | 27 nM |
| O=c1[nH]c2c(c3sccc13)Cc1c(CNC3CCCC3)cccc1-2 [Example 55, 9-((cyclopentylamino)methyl)-5,10-dihydro-4H-indeno[1,2-b]thieno[2,3-d]pyridin-4-one] | 34 nM | 41.2 nM |
| CCCN1CCN(c2cccc3c2Cc2c-3[nH]c(=O)c3c2CCCC3)CC1 [Example 41, 10-(4-propylpiperazin-1-yl)-3,4,6,11-tetrahydro-1H-indeno[1,2-c]isoquinolin-5(2H)-one] | 45 nM | 6.3 nM |
| CN1CCN(c2cccc3c2Cc2c-3[nH]c(=O)c3cccnc23)CC1 [Example 56, 10-(4-methylpiperazin-1-yl)-6,11-dihydro-5H-indeno[1,2-d][1,6]naphthyridin-5-one] | 9 nM | 19.9 nM |
| CCOC1CCN(Cc2cccc3c2Cc2c-3[nH]c(=O)c3c2CCCC3)CC1 [Example 9, 10-((4-ethoxypiperidin-1-yl)methyl)-3,4,6,11-tetrahydro-1H-indeno[1,2-c]isoquinolin-5(2H)-one] | 12.7 nM | 93.9 nM |
| CCCCN1CCN(c2cccc3c2Cc2c-3[nH]c(=O)c3cccnc23)CC1 [Example 58, 10-(4-butylpiperazin-1-yl)-6,11-dihydro-5H-indeno[1,2-h][1,6]naphthyridin-5-one] | 6.1 nM | 25.5 nM |
| O=c1[nH]c2c(c3c1CCCC3)Cc1c(CN3CC=CCC3)cccc1-2 [Example 69, 10-((5,6-dihydropyridin-1(2H)-yl)methyl)-3,4,6,11-tetrahydro-1H-indeno[1,2-c]isoquinolin-5(2H)-one] | 18.4 nM | 54.7 nM |
| C[C@@H]1CN(c2cccc3c2Cc2c-3[nH]c(=O)c3c2CCCC3)C[C@H](C)O1 [Example 32, 10-(2,6-dimethylmorpholino)-3,4,6,11-tetrahydro-1H-indeno[1,2-c]isoquinolin-5(2H)-one] | 100 nM | 23.1 nM |
| O=c1[nH]c2c(c3c1CCCC3)Cc1c(CN3CCC(O)CC3)cccc1-2 [Example 1, 10-((4-hydroxypiperidin-1-yl)methyl)-3,4,6,11-tetrahydro-1H-indeno[1,2-c]isoquinolin-5(2H)-one] | 11.3 nM | 3.83 nM |
| CCN1CCN(c2cccc3c2Cc2c-3[nH]c(=O)c3cccnc23)CC1 [Example 59, 10-(4-ethylpiperazin-1-yl)-6,11-dihydro-5H-indeno[1,2-h][1,6]naphthyridin-5-one] | 2.4 nM | 12.4 nM |
| O=c1[nH]c2c(c3c1CCCC3)Cc1cc(CNCCN3CCOCC3)ccc1-2 [Example 45, 9-((2-morpholinoethylamino)methyl)-3,4,6,11-tetrahydro-1H-indeno[1,2-c]isoquinolin-5(2H)-one] | 25 nM | 5.5 nM |
| COCCNCc1ccc2c(c1)Cc1c-2[nH]c(=O)c2c1CCCC2 [Example 36, 9-((2-methoxyethylamino)methyl)-3,4,6,11-tetrahydro-1H-indeno[1,2-c]isoquinolin-5(2H)-one] | 50 nM | 8.9 nM |
| O=c1[nH]c2c(c3c1CCCC3)Cc1c(CN3CCCCC3)cccc1-2 [Example 2, 10-(piperidin-1-ylmethyl)-3,4,6,11-tetrahydro-1H-indeno[1,2-c]isoquinolin-5(2H)-one] | 1.52 nM | 5.15 nM |
| COCCN1CCN(c2cccc3c2Cc2c-3[nH]c(=O)c3cccnc23)CC1 [Example 49, 10-(4-(2-methoxyethyl)piperazin-1-yl)-6,11-dihydro-5H-indeno[1,2-h][1,6]naphthyridin-5-one] | 22.7 nM | 55.7 nM |
| CSCCC(=O)Nc1cccc2c1Cc1c-2[nH]c(=O)c2c1CCCC2 [Example 52, 3-(methylthio)-N-(5-oxo-2,3,4,5,6,11-hexahydro-1H-indeno[1,2-c]isoquinolin-10-yl)propanamide] | 55 nM | 73.6 nM |
| C[S+]([O-])CCC(=O)Nc1cccc2c1Cc1c-2[nH]c(=O)c2c1CCCC2 (centres unmarked) [Example 53, 3-(methylsulfinyl)-N-(5-oxo-2,3,4,5,6,11-hexahydro-1H-indeno[1,2-c]isoquinolin-10-yl)propanamide] | 6 nM | 89.8 nM |
